Results published in patent US20150299219A1, “BICYCLIC PYRAZOLONE COMPOUNDS AND METHODS OF USE” (Calitor Sciences, LLC, priority 2014, published 2015).

How the values were obtained:
[1] = Pharmacokinetic profiles in rats; type: in vivo; details: for clearance (CL) / AUC(0-t) / half-life / Vd: iv dosing, 1 mg/kg; for AUC(0-t) / half-life / Vd / bioavailability: rat, plasma; for Vd: read-out: Vss; for bioavailability: po, bioavailability (F)
Experimental: The LC/MS/MS system used in the analysis consists of an Agilent 1200 Series vacuum degasser, binary pump, well-plate autosampler, thermostatted column compartment, the Agilent G6430 Triple Quadrupole Mass Spectrometer with an electrosprayionization (ESI) source. Quantitative analysis was carried out using MRM mode. The parameters for MRM transitions are in the Table A.
An Agilent XDB-C18, 2.1×30 mm, 3.5 μM column was used for the analysis. 5 μL of the samples were injected. Analysis condition: The mobile phase was 0.1% formic acid in water (A) and 0.1% formic acid in methanol (B). The flow rate was 0.4 mL/min. And the gradient of Mobile phase was in the Table B.
Alternatively, an Agilent 6330 series LC/MS/MS spectrometer equipped with G1312A binary pumps, a G1367A autosampler and a G1314C UV detector were used in the analysis. An ESI source was used on the LC/MS/MS spectrometer. The analysis was done in positive ion mode as appropriate and the MRM transition for each analyte was optimized using standard solution. A Capcell MP-C18 100×4.6 mm I.D., […] column (Phenomenex, Torrance, Calif., USA) was used during the analysis. The mobile phase was 5 mM ammonia acetate, 0.1% MeOH in water (A): 5 mM ammonia acetate, 0.1% MeOH in acetonitrile (B) (70/30, v/v). The flow rate was 0.6 mL/min. Column was maintained at ambient temperature. 20 μL of the samples were injected.
The compounds disclosed herein are assessed in pharmacokinetic studies in mice, rats, dogs or monkeys. The compounds are administered as a water solution, 2% HPMC+1% TWEEN®80 in water solution, 5% DMSO+5% solutol in saline, 4% MC suspension or capsule. For the intravenous administration, the animals are generally given at 1 or 2 mg/kg dose. For the oral (p.o.) dosing, mice and rats are generally given 5 or 10 mg/kg dose, and dogs and monkeys are generally given 10 mg/kg dose. The blood samples (0.3 mL) are drawn at 0.25, 0.5, 1.0, 2.0, 3.0, 4.0, 6.0, 8.0, 12 and 24 h time points or 0.083, 0.25, 0.5, 1.0, 2.0, 4.0, 6.0, 8.0 and 24 h time points and centrifuged at 3,000 or 4000 rpm for 2 to 10 min. The plasma solutions are collected, and stored at −20° C. or −70° C. until analyzed by LC/MS/MS as described above.

Mer (h) = molecular target: T1, Mer (h) (Homo sapiens, UniProt Q12866); test: Mer (h) kinase assay; type: biochemical
T1 construct: purchased Millipore UK Ltd
T1 sequence (Q12866 21-999): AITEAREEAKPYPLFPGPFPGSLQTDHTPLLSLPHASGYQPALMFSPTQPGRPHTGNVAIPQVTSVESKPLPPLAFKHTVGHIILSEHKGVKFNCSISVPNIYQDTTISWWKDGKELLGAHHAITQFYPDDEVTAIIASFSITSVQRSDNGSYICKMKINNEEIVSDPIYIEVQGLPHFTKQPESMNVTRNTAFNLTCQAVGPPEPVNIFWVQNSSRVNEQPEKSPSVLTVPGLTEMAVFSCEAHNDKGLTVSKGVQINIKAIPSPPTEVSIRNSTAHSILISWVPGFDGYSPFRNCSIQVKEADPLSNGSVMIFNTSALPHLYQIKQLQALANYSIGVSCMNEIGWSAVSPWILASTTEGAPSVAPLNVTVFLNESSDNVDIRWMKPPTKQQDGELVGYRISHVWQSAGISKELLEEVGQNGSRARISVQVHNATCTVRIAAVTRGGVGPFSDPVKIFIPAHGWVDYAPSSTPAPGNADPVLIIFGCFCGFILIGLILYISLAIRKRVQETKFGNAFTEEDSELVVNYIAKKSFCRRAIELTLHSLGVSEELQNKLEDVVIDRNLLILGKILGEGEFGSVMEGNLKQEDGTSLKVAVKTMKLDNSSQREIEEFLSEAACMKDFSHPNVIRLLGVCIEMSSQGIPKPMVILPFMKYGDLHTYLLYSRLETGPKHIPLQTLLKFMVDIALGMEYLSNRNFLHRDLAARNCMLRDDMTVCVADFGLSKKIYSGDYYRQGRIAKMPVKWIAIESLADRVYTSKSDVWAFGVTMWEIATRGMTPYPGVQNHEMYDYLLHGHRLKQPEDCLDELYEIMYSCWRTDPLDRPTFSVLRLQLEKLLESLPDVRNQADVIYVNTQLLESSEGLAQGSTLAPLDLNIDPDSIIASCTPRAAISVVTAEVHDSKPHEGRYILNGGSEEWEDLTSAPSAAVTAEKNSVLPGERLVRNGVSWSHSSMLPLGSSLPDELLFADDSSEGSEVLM
Experimental: The above assay procedure can be used to determine the IC50 for inhibition and/or the inhibition constant, Ki. The IC50 is defined as the concentration of compound required to reduce the enzyme activity by 50% under the condition of the assay. The IC50 value is estimated by preparing a 10 point curve using a 1/2 log dilution series (for example, a typical curve may be prepared using the following compound concentrations: 10 μM, 3 μM, 1 μM, 0.3 μM, 0.1 μM, 0.03 μM, 0.01 μM, 0.003 μM, 0.001 μM and 0 μM).
Mer (h) is incubated with 8 mM MOPS pH 7.0, 0.2 mM EDTA, 30 mM NaCl, 250 μM GGMEDIYFEFMGGKKK, 10 mM MgAcetate and [γ-^33P-ATP] (specific activity approx. 500 cpm/pmol, concentration as required). The reaction is initiated by the addition of the MgATP mix. After incubation for 40 minutes at room temperature, the reaction is stopped by the addition of 3% phosphoric acid solution. 10 μL of the reaction is then spotted onto a P30 filtermat and washed three times for 5 minutes in 75 mM phosphoric acid and once in methanol prior to drying and scintillation counting.
The kinase assays described herein were performed at Millipore UK Ltd, Dundee Technology Park, Dundee DD2 1SW, UK.

Structure (SMILES) | clearance (CL) [1] | AUC(0-t) [1] | half-life [1] | Vd [1] | bioavailability [1] | IC50 (Mer (h))
CC(=O)Nc1cc(Oc2ccc(NC(=O)c3c4n(n(-c5ccccc5)c3=O)CCC4)cc2)ccn1 [Ex. 3, N-(4-((2-acetamidopyridin-4-yl)oxy)phenyl)-2-oxo-1-phenyl-2,4,5,6-tetrahydro-1H-pyrrolo[1,2-b]pyrazole-3-carboxamide] | 0.039 L/h/kg | 26300 ng·h/mL | 230 min | 0.18 L/kg | 94.5% | 35 nM
CC(=O)Nc1cc(Oc2ccc(NC(=O)c3c4n(n(-c5ccccc5)c3=O)CCOC4)nc2)ccn1 [Ex. 12, N-(5-((2-acetamidopyridin-4-yl)oxy)pyridin-2-yl)-2-oxo-1-phenyl-2,4,6,7-tetrahydro-1H-pyrazolo[5,1-c][1,4]oxazine-3-carboxamide] | 0.020 L/h/kg | 46700 ng·h/mL | 401 min | 0.136 L/kg | 72.1% | 74 nM

Now those with a lower IC50 (Mer (h)), led by results:

clearance (CL) [1] | AUC(0-t) [1] | half-life [1] | Vd [1] | bioavailability [1] | IC50 (Mer (h)) | Structure (SMILES)
0.033 L/h/kg | 27200 ng·h/mL | 463 min | 0.313 L/kg | 68.1% | 3 nM | O=C(Nc1ccc(Oc2ccnc(NC(=O)C3CC3)c2)cc1)c1c2n(n(-c3ccccc3)c1=O)CCC2 [Ex. 2, N-(4-((2-(cyclopropanecarboxamido)pyridin-4-yl)oxy)phenyl)-2-oxo-1-phenyl-2,4,5,6-tetrahydro-1H-pyrrolo[1,2-b]pyrazole-3-carboxamide]
0.076 L/h/kg | 12900 ng·h/mL | 301 min | 0.359 L/kg | 87.9% | 8 nM | O=C(Nc1ccc(Oc2ccnc(NC(=O)C3CC3)c2)cn1)c1c2n(n(-c3ccccc3)c1=O)CCC2 [Ex. 14, N-(5-((2-(cyclopropanecarboxamido)pyridin-4-yl)oxy)pyridin-2-yl)-2-oxo-1-phenyl-2,4,5,6-tetrahydro-1H-pyrrolo[1,2-b]pyrazole-3-carboxamide]
0.018 L/h/kg | 50100 ng·h/mL | 425 min | 0.15 L/kg | 66.7% | 5 nM | O=C(Nc1ccc(Oc2ccnc(NC(=O)C3CC3)c2)cc1)c1c2n(n(-c3ccccc3)c1=O)CCOC2 [Ex. 19, N-(4-((2-(cyclopropanecarboxamido)pyridin-4-yl)oxy)phenyl)-2-oxo-1-phenyl-2,4,6,7-tetrahydro-1H-pyrazolo[5,1-c][1,4]oxazine-3-carboxamide]
